The values that follow come from patent US6413960B1, “Substituted pyrazolyl benzenesulfonamides for the treatment of asthma” (G.D. Searle & Co., priority 1993, dated 2002).

Structures are written as SMILES. Like-named read-outs stand apart in the source and are kept apart here.

The test system of series [1] is Male Sprague-Dawley rats (carrageenan foot edema).
Method: Rat Carrageenan Foot Pad Edema Test
Male Sprague-Dawley rats were selected in each group so that the average body weight was as close as possible. Rats were fasted with free access to water for over sixteen hours prior to the test. […] One hour later a subplantar injection of 0.1 mL of 1% solution of carrageenan/sterile 0.9% saline was administered and the volume of the injected foot was measured with a displacement plethysmometer connected to a pressure transducer with a digital indicator. Three hours after the injection of the carrageenan, the volume of the foot was again measured.
The test system of series [2] is Male Sprague-Dawley rats (carrageenan hyperalgesic foot withdrawal). The note with it: rat.
Method: Rat Carrageenan-induced Analgesia Test
Male Sprague-Dawley rats were treated as previously described for the carrageenan Foot Pad Edema test. Three hours after the injection of the carrageenan, the rats were placed in a special plexiglass container with a transparent floor having a high intensity lamp as a radiant heat source, positionable under the floor. After an initial twenty minute period, thermal stimulation was begun on either the injected foot or on the contralateral uninjected foot. A photoelectric cell turned off the lamp and timer when light was interrupted by paw withdrawal. The time until the rat withdraws its foot was then measured. The withdrawal latency in seconds was determined for the control and drug-treated groups, and percent inhibition of the hyperalgesic foot withdrawal determined.
Series [3] deals with T1, Human COX I (Homo sapiens, UniProt P23219).
T1 construct: A 2.0 kb fragment containing the coding region of either human or murine COX-I or human or murine COX-II; made in house; host or cells: SF9 insect cells (baculovirus, transfer vector pVL1393)
Nature of the series: Assay for COX I activity in vitro (PGE2 ELISA, recombinant enzyme). The note with it: read-out: Human COX I ID50. The format is biochemical. In general terms: In an ELISA, binding on a coated surface is turned into a signal by an enzyme label.

The target in series [4] is T2, Human COX II (Homo sapiens, UniProt P35354).
T2 construct: A 2.0 kb fragment containing the coding region of either human or murine COX-I or human or murine COX-II; made in house; host or cells: SF9 insect cells (baculovirus, transfer vector pVL1393)
T2 sequence (P35354 18-604): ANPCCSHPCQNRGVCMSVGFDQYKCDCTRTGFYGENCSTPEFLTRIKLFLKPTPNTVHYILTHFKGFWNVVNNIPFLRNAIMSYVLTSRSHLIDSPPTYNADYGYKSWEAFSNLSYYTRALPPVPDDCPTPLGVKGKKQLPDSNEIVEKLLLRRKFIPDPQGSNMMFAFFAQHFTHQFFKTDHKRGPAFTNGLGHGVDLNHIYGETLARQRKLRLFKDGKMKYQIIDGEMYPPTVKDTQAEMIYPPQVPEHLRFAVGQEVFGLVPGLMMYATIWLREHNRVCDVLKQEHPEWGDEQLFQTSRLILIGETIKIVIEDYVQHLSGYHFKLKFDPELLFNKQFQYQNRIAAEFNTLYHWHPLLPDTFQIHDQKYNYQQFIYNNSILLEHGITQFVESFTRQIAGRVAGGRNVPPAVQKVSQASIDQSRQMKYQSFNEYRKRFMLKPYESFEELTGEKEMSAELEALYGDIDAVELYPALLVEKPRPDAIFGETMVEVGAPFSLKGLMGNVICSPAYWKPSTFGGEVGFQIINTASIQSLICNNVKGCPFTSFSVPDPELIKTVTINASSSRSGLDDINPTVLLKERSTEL
Kind of series: Assay for COX II activity in vitro (PGE2 ELISA, recombinant enzyme). The class given is biochemical. The conditions noted are these: read-out: Human COX II ID50.
Method: The COX II inhibition activity of the compounds of this invention illustrated in the Examples was determined by the following methods.

[5] abbreviates: oral, 10 mg/kg body weight, foot volume 3 h after carrageenan.
Setting [6] is: oral, 30 mg/kg body weight, inhibition of hyperalgesic foot withdrawal.

What is called melting point is the temperature of the solid-liquid transition.

T1 sequence (P23219 24-599): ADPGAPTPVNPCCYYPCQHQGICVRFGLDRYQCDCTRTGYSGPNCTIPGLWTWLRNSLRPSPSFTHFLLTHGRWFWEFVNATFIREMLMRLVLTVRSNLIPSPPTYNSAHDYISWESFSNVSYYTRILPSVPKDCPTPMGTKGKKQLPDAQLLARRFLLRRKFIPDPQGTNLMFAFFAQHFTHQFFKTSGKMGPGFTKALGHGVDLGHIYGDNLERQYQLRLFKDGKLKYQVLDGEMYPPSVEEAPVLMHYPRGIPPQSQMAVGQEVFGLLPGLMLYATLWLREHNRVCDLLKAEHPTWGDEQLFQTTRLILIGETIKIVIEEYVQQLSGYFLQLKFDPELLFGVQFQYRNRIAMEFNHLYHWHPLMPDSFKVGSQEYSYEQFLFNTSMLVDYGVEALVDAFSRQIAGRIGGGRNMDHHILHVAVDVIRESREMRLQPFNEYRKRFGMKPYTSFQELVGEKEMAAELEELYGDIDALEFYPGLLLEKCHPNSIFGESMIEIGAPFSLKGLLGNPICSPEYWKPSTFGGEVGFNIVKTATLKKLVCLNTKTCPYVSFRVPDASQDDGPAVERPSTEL

Take `NS(=O)(=O)c1ccc(-n2nc(C(F)(F)F)cc2-c2ccc(Cl)cc2)cc1` [Example 1, 4-[5-(4-Chlorophenyl)-3-(trifluoromethyl)-1H-pyrazol-1-yl]benzenesulfonamide]: the “RAT PAW EDEMA % Inhibition @ 10 mg/kg body weight” value in series [1] (in vivo) was 44%. The “ANALGESIA % Inhibition @ 30 mg/kg body weight” value in series [2] (in vivo) came to 94%.
With `NS(=O)(=O)c1ccc(-n2nc(C(F)F)cc2-c2ccc(Cl)cc2)cc1` [Example 58, 4-[5-(4-Chlorophenyl)-3-(difluoromethyl)-1H-pyrazol-1-yl]benzenesulfonamide], in series [1] (setting [5]), the “RAT PAW EDEMA % Inhibition @ 10 mg/kg body weight” value is 36%. In series [2] (setting [6]), the “ANALGESIA % Inhibition @ 30 mg/kg body weight” value was 65%.
As for `COc1ccc(-c2cc(C(F)F)nn2-c2ccc(S(N)(=O)=O)cc2)cc1F` [Example 59, 4-[5-(3-Fluoro-4-methoxyphenyl)-3-(difluoromethyl)-1H-pyrazol-1-yl]benzenesulfonamide], the “RAT PAW EDEMA % Inhibition @ 10 mg/kg body weight” value in series [1] (in vivo) stood at 25%. Moreover, in series [2] (in vivo), the “ANALGESIA % Inhibition @ 30 mg/kg body weight” value came to 41%.
Turning to `COc1ccc(-c2cc(C(F)F)nn2-c2ccc(S(N)(=O)=O)cc2)cc1` [Example 60, 4-[3-Difluoromethyl-5-(4-methoxyphenyl)-1-H-pyrazol-1-yl]benzenesulfonamide], the “RAT PAW EDEMA % Inhibition @ 10 mg/kg body weight” value in series [1] (setting [5]) stood at 49%. In series [2] (setting [6]), the “ANALGESIA % Inhibition @ 30 mg/kg body weight” value was found to be 39%.
Take `NS(=O)(=O)c1ccc(-n2nc(C(F)(F)Cl)cc2-c2ccc(Cl)cc2)cc1` [Example 129, 4-[5-(4-Chlorophenyl)-3-(chloro-difluoromethyl)-1H-pyrazol-1-yl]benzenesulfonamide]: the melting point fell in the range of 130 to 133 °C. In addition, the IC50 in series [3] was 13.5 µM. Besides, the IC50 in series [4] was less than 0.1 µM. In series [1] (oral, 30 mg/kg body weight (values marked *), foot volume 3 h after carrageenan), the “RAT PAW EDEMA % Inhibition (* Assay performed at 30 mg/kg body weight)” value was 47* %.
With `NS(=O)(=O)c1ccc(-n2nc(CO)cc2-c2ccc(Cl)cc2)cc1` [Example 171, 4-[5-(4-Chlorophenyl)-3-hydroxymethyl-1H-pyrazol-1-yl]benzenesulfonamide], the “RAT PAW EDEMA % Inhibition @ 10 mg/kg body weight” value in series [1] (setting [5]) came out at 14%. In series [2] (setting [6]), the “ANALGESIA % Inhibition @ 30 mg/kg body weight” value was 37%.
